Experimental data as given in patent publication US20170014372A1, “Drug Combination for Treatment of Proliferative Diseases” (ECOLE POLYTECHNIQUE FEDERALE DE LAUSANNE (EPFL), priority 2014, published 2017).

Assays:
786-0 cells = assay: Cell viability assay on 786-0; type: cell-based, human; conditions: 72 h
Method: (§1) Cell viability assay was performed as previously described (31). Cells were seeded in a 96-well culture plate at a density of 2.5-10×10^3 cells/well, depending on cell type (ECRF24 in gelatin-coated plates), 24 h prior to the application drug combinations or control conditions (in a total volume of 50 μl) and were subsequently incubated for an additional 72 h. Cell viability was assessed using the CellTiter-Glo luminescent cell viability assay (Promega, Madison, Wisc., USA).

LS174T tumors = assay: Human colorectal adenocarcinoma (LS174T) grafted intradermally in Swiss nu/nu mice; type: in vivo; conditions: treated daily; for tumor growth inhibition: doses per Table 2
Method: Mice were randomized into groups and treated with sham (CTRL), individual drugs, 4+8+9 (M1 and M2), and 4+8 (M3), respectively (Table 2) Individual drugs inhibited tumor growth only by approximately 0% and 6% (4) at 5 and 15 mg/kg, 10% (8) or 23% (9), whereas combinations M1 and M2 by 76±14% and 25±17%, respectively (FIG. 5D). On the last day of the experiment (FIG. 5E) tumors were resected, and paraffin embedded for immunohistochemical staining for endothelial cells (CD31). In M1-treated tumors microvessel density was approximately 80% lower then in sham-treated tumors (CTRL), FIG. 5F.
FIG. 5. Inhibition of A2780 (A-C) or LS174T (D-F) tumor growth in vivo by the best mixtures optimized. (A) Growth curve of A2780 tumors grafted on the CAM showing tumor volume with respect to treatment day. Treatment was administered i.v. on days 1 and 2 and tumors were excised on the 8th (last) day of experiment. Data points represent the average tumor volume as a percentage of the final control volume per experiment. (B) Figures show representative tumors of sham treated (CTRL) and F drug combination. (C) The microvessel density profiles are expressed as the number of vessels per mm^2 and presented as a percentage of a control. (D) LS174T grafted intradermally in Swiss nu/nu mice and treated daily with single compounds or mixtures. Data points represent the average tumor volume as a percentage of the final control volume per experiment and error bars represent the SEM; N=3-9. *p <0.05 and **p<0.01. ‘S’ indicates synergy (Cl≦0.8). (E) The microvessel density profiles are expressed as the number of vessels per mm^2 and presented as a percentage of a control. […] The bar in the upper right image represents 0.5 mm and is valid for both images. Data points represent average values of 2 independent experiments and error bars represent SEM; N=3-7; **p<0.01.

HUVEC = assay: Cell viability assay on HUVEC; type: cell-based, human; conditions: 72 h
Method: (§2) Cell viability assay was performed as previously described (31).

[1] = test system: panAKT, pMAPK and ribosomal protein S6 (pS6); assay: Western blot of panAKT, pMAPK and pS6 in ECRF24; type: cell-based, human; conditions: 5 hrs incubation
Method: Cells were seeded in a 6-well plate (30×10^4 cells per well) 24 h prior to the removal of medium and application of selected drug combinations or DMSO control (total volume of 2 mL). After an additional 5 hrs of incubation at the given conditions, medium was removed, cells were washed with PBS and 100 μl of buffer lysate was added (prepared on ice and composed of RIPA, protease inhibitors (1:1000) and sodium orthovanadate (1:1000)). Wells were then scratched and cell lysate solution was removed and put on ice for 10 min. Cell supernatant was isolated after centrifuging solution at 12,000 min^−1 for 15 min. A solution of blue buffer (4×)+u-Page Reducing Agent (10×) was added to supernatant and samples were kept at 95 ° C. for 5 min.
The samples were then run in an electrophoresis gel for 90 min at 125 V. The monoclonal antibodies included phosphorylated Akt (473), total Akt, phosphorylated MAPK, and phosphorylated S6 (235/236 hamster, Cell Signaling). Cell extracts were prepared by detergent lysis [50 mmol/L Tris-HCl (pH 8.0), 150 mmol/L NaCl, 1% NP40, 0.5% sodium deoxycholate, 0.1% SDS containing protease (Sigma, St. Louis, Mo.) and phosphatase (Sigma) inhibitor cocktails]. The soluble protein concentration was determined by micro-BSA assay (Pierce, Rockford Ill.). Protein immunodetection was done by electrophoretic transfer of SDS-PAGE separated proteins to nitrocellulose, incubation with antibody and chemiluminescent second step detection (PicoWest; Pierce). Protein expression was quantified in Fiji by densitometry as previously described (39, 40). Results were expressed as a relative ratio between samples and control.

ECRF24 cells = assay: Cell viability (proliferation) assay on endothelial cells ECRF24; type: cell-based, human; conditions: for single-drug dose required for the same EC proliferation inhibition as the best combination (90% inhibition): assuming linear dose-response curves; for theoretical dose reduction in combination: vs single-drug dose for 90% inhibition
Method: as §2
The feedback system control (FSC) technique was employed as previously described (13, 33, 34). In the research presented here, the FSC technique is implemented using the differential evolution (DE) algorithm (35) and two separate optimization were performed with the cellular outputs of ECRF cell viability (proliferation) and migration (wound healing) assays. 19 drug combinations were tested per iteration and 11 iterations were performed in each optimization, or until a plateau in the best output value was reached.
Drug mixing was performed as follows: stock solutions were first used to prepare the highest concentration of each compound and lower concentrations were prepared through serial dilutions of the higher concentrations. All drug concentrations were prepared 9 times more concentrated than desired to account for dilution by other compounds (or medium when a compound was not included). The drug mixtures were prepared directly before applying drug combinations to cells by first adding the required amount of medium for each combination (i.e.
all compounds which are included at concentration 0) and then adding the required concentration of each compound, always in the same order. The cells were incubated in 50 μl of each mixture for 72 h in the proliferation assay or for 6 h in the migration assay.
Second order linear regression models were generated using the data obtained from each optimization. Data was modeled using real concentration values and both concentration values and proliferation output data was transformed using the z-score function in Matlab. The negative values of the 2nd-order terms regression coefficients corresponds to synergistic effect, the positive value to the antagonistic effect. Appropriate data and model verification methods were implemented to ensure the accuracy and reliability of predictions made based on these models. The main assumptions of linear regression models were verified (i.e. weak exogeneity, linearity, constant variance, independence of errors, and lack of multicolinearity). As the presence of multicolinearity was indicated in a few of the regressors in the second order linear regression model of the proliferation data (based on the analysis of variance inflation factors (VIF) and condition indices), a stepwise linear regression was also performed to isolate the most important regressors and remove instabilities in the regression analysis due to multicolinearity. Drug interactions were additionally analyzed using the Compusyn software (14), where a ‘combination index’ (CI) is calculated for drug combinations and CI values less than […] indicate synergistic drug combinations, while CI-values greater than 1 indicate antagonistic drug.

[2] = test system: A2780 tumors grafted on the CAM; assay: Human ovarian carcinoma (A2780) grafted on the chicken chorioallantoic membrane (CAM); type: in vivo, chicken embryo; conditions: for tumor growth inhibition, single compound at high concentration: high concentration: 29 μg/kg (4) and 615 μg/kg (8); for tumor growth inhibition, single compound at low concentration: low concentration: 2.9 μg/kg (4) and 307 μg/kg (8)
Method: Human ovarian carcinoma tumors were implanted on the CAM as previously described (36). Briefly, fertilized chicken eggs were incubated in a hatching incubator (37° C. and relative humidity 65%), as previously described (37). […] Treatment began when vascularized tumors were visible, 3 days after tumor implantation (EDD10). Drug combinations were prepared as done in in vitro assays, were pre-mixed and administered as a 20 μL intravenously injection. […] On the last day of experiment CAM experiments, tumors were resected, fixed overnight in zinc fixative solution as previously described (38). […] Primary antibody incubation was performed overnight (DIA-310; Dianova, Hamburg, Germany).

A2780 cells = assay: Cell viability assay on A2780; type: cell-based, human; conditions: 72 h
Method: as §1

[3] = test system: renal cell carcinoma (Caki-1) cells; conditions: combinations of Table 4
Method: as §1

Compound	inhibition of HUVEC viability (HUVEC)	pAkt protein [1]	single-drug dose required for the same EC proliferation inhibition as the best combination (90% inhibition) (ECRF24 cells)	theoretical dose reduction in combination (ECRF24 cells)	tumor growth inhibition, single compound at high concentration [2]	tumor growth inhibition, single compound at low concentration [2]	tumor growth inhibition (LS174T tumors)	other results
CNC(=O)c1ccccc1Sc1ccc2c(/C=C/c3ccccn3)n[nH]c2c1 [compound 3, axitinib]								inhibition of 786-0 cell viability (786-0 cells): approx. 30%
C#Cc1cccc(Nc2ncnc3cc(OCCOC)c(OCCOC)cc23)c1 [compound 4, erlotinib]	more sensitive	slight decrease	approximately 50 μM	5 fold	~20%	approximately 6%		tumor growth inhibition at 5 mg/kg (LS174T tumors; 5 mg/kg): approximately 0%; tumor growth inhibition at 15 mg/kg (LS174T tumors; 15 mg/kg): ~6%; inhibition of A2780 cell viability (A2780 cells): approximately 40%
Cc1ccc(C(C)C)cc1.[Cl][Ru]([Cl])[PH]12CN3CN(CN(C3)C1)C2 [compound 8, RAPTA-C]		slight decrease	~2000 µM	11 fold	~20%	approximately 6%	~10%	
Cn1c(=O)n(-c2ccc(C(C)(C)C#N)cc2)c2c3cc(-c4cnc5ccccc5c4)ccc3ncc21 [compound 9, BEZ-235]	more sensitive		~0.12 µM	6 fold			~23%	pS6 expression [1]: nearly complete inhibition; pS6 expression ([1]; listed as BEZ235): inhibited; tumor growth inhibition, single compound at its applied concentration ([2]; limiting compound, dose used in the combinations): approximately 35%
AZD4547								inhibition of Caki-1 cell proliferation / synergy [3]: effective and synergistic inhibition
